Laboratory results as given in paper PMC11303286, “In silico and in vitro chemometrics, cell toxicity and permeability of naringenin 8-sulphonate and derivatives” (Frontiers in Pharmacology, 2024).

Assays:
[1] = test system: HaCaT human keratinocyte cells; experiment: MTT cell viability assay, HaCaT; assay type: cell-based; conditions: 24 h, compared to control
Protocol: (§1) MRC-5 human lung fibroblast cells (Sigma-Aldrich, St. Louis, MO, United States) were cultured in MEM, while HaCaT human keratinocyte cells (ATCC, Manassas, VA, United States) and Caco-2 human intestinal epithelial cells (American Type Culture Collection, LGC Standards S.L.U., Spain) were cultured in DMEM. Both medium were supplemented with 10% of FBS and 1% of penicillin/streptomycin. Cells were incubated in 75 cm^2 cell culture flasks, which were placed in an incubator at 37°C, with a humidified atmosphere of 5% CO2. For the experiments, cells were seeded for 24 h in 96-well plates. MRC-5 and Caco-2 were seeded at 20,000 cells/well and HaCaT were seeded at 15,000 cells/well.
(§2) Toxicity of compounds, at 50 and 100 μM, was assessed against non-cancerous cell lines through the MTT assay after 24 h of incubation, following the protocol described in [Macedo et al., (2023)], with slight modifications. Thus, cells were exposed to MTT for 2 h, in the case of MRC-5, and 1 h 30 min, in the case of HaCaT. This assay was also performed to evaluate the response of Caco-2 cells to compounds at concentrations from 125 to 1,000 μM during the permeability assay, these cells being incubated for 4 h with the samples and exposed to MTT for 2 h. Results were expressed as percentage of viability compared to the control and correspond to the mean of, at least, three independent experiments performed in triplicate.

[2] = test system: MRC-5 human lung fibroblast cells; experiment: MTT cell viability assay, MRC-5; assay type: cell-based; conditions: 24 h; for cell viability: compared to control
Protocol: as §1, §2

[3] = test system: Caco-2 human intestinal epithelial cells; experiment: MTT cell viability assay, Caco-2 (before permeability assay); assay type: cell-based; conditions: Caco-2, 4 h, concentrations until 1,000 μM
Protocol: as §1, §2
The ability of naringenin 8-sulphonate to cross biological barriers was tested using a Caco-2 permeability model. The first step for this assay was to test the possible impact of high concentrations of samples in Caco-2 cells during the time of the experiment. Thus, an MTT assay, using concentrations of naringenin, naringenin 4’-O-sulphate and naringenin 8-sulphonate until 1,000 μM, was performed.

[4] = test system: Caco-2 cell monolayers; experiment: Caco-2 permeability assay (Transwell); assay type: in vitro ADME, human; conditions: for P app, experimental: Caco-2 permeability model, 1,000 μM, 240 min time point; for percentage of the amount placed in the apical chamber found in the basolateral chamber: after 240 min, 1,000 μM, apical to basolateral; for P app class, experimental: classification ref Karakucuk et al., 2021
Protocol: (§3) Caco-2 cells were seeded for 21 days at 112,000 cells/well in Corning® 3460 Transwell® 12 mm Polyester Membrane Inserts (Corning Incorporated, ME, United States). At every other day, culture medium was replaced and the transepithelial electrical resistance was measured to ensure values above 400 ohms until the day of the assay, to guarantee membrane integrity. For quality control purposes, Lucifer Yellow was used at 100 μg mL^-1 in the day of the assay. Briefly, one of the inserts was incubated with Lucifer Yellow during 1 h and, after that, its concentration was measured in the basolateral chamber, based on fluorescence intensity (λexc = 485 nm and λem = 535 nm). Lucifer Yellow passage, from the apical to the basolateral chamber equal or lower than 3% was considered indicative of a well-defined cell barrier phenotypically translated as good membrane integrity.
(§4) Treatments were applied in the transwells apical chamber and the basolateral chamber was filled with HBSS with calcium (1.26 mM) and magnesium (0.81 mM). At specific timepoints, namely 10, 20, 30, 60, 90, 120 and 180 min, half of the volume from the basolateral chamber was collected and replaced by the same volume of HBSS. In the last time point, at 240 min, content of both apical and basolateral compartments was collected to calculate the final mass balance. Transwells were maintained in agitation at 50 rpm, 37°C and 5% CO2 between the timepoints.
(§5) Concentration of each analyte in the different compartments was determined by HPLC-DAD using a Gilson Medical Electronics HPLC system (Villiers le Bel, France), with a Spherisorb ODS® (250 × 4.6 mm, 5 μm particle size, 100 Å pore size) column (PSS831915, Waters, Dublin, Ireland). Elution was performed for 7 min, with a flow rate of 900 μL min^-1. A mixture of methanol: water-formic acid (1%) was used as mobile phase, in a proportion of 65:35 for naringenin and 47:53 for naringenin 4’-O-sulphate and naringenin 8-sulphonate. Quantifications were performed at 285 nm.
(§6) Results were obtained from three independent experiments and each sample was analysed in triplicate. Apparent permeability (P app ) coefficient (cm s^-1) was calculated based on the equation P app = ΔQ/Δt×(1/(A×C0)), where ΔQ/Δt represents the amount of compound over time (mol s^-1), A is the monolayer area (cm^2) and C0 (mol mL^-1) is the initial drug concentration of the apical side ([Nait et al., 2009]; [Silva et al., 2020]).

[5] = test system: Caco-2 human intestinal epithelial cells; experiment: Alkaline comet assay (DNA damage), Caco-2; conditions: for percentage of DNA in tail, first quartile / percentage of DNA in tail, third quartile / percentage of DNA in tail, median: Caco-2, 100 μM, 24 h; for percentage of DNA in tail, median: negative control 20.98; for genotoxicity: DNA fragmentation: Caco-2, alkaline comet assay, 100 μM
Protocol: Caco-2 cells were incubated for 24 h in 12 well plates at a density of 350,000 cells/well. After this, they were incubated with each sample and negative control for 24 h and collected using 500 μL of trypsin (0.25%)-ethylenediaminetetraacetic acid (EDTA) (0.038%), which was then inactivated with 1 mL of Hanks’ Balanced Salt Solution (HBSS). The cell suspension was centrifuged at 1,200 rpm during 8 min at room temperature, supernatant was discarded, and cells were resuspended in 100 μL of HBSS.
Electrophoresis was carried out to evaluate the extent of DNA fragmentation. For this, agarose-coated slides were prepared using an 1% agarose solution. A volume of 20 μL from the cell suspension was involved in 170 μL of 1% low gelling temperature agarose solution and applied to the slides, which were then placed at 4°C until solidification. Slides were submerged in a lysis solution (2.5 M NaCl, 0.1 M EDTA, 10 mM Tris-HCl, pH 10) with 1% Triton-X 100, at 4°C and sheltered from the light, for 105 min. After this, slides were submerged in the electrophoresis buffer (300 mM NaOH, 1 mM EDTA, pH 13) for 40 min. A Sub-Cell GT Horizontal Electrophoresis System 15 × 15 cm tray (Bio-Rad Laboratories Lda, Oeiras, Portugal) was used to run the electrophoresis at 25 V and 240 mA during 30 min in the dark. In the end of the electrophoresis, slides were submerged for three times in a neutralization solution (0.4 M Tris-HCl, pH 7.5), during 5 min each.
For the fluorescence microscopy analysis, DAPI was added for 15 min at 0.5 μg mL^-1, the slides being washed once with HBSS in the end. Images were acquired using a Nikon Eclipse Ts2R-FL inverted microscope with a Retiga R1 camera (01-RET-R1-RM) and CFI Plan Fluor ×10 DIC objective. DNA damage was calculated using the AutoComet algorithm ([Barbe et al., 2023]) by dividing the amount of fluorescence signal correspondent to the DNA content in the comet’s tail by the signal correspondent to the total DNA in the comet. MMS 500 μM, incubated for 30 min, was used as positive control for DNA fragmentation and consequent DNA tail formation.
Comet assay was performed to evaluate possible genotoxicity of compounds. […] The percentage of DNA in the tail may be used as a parameter to evaluate the damage on DNA ([Clementi et al., 2021]).

[6] = test system: Caco-2 cells; conditions: ref Tian et al., 2009; cited from earlier work
[7] = MTT cell viability assay, HaCaT; assay type: cell-based, human; conditions: human, HaCaT keratinocyte cells, compared to control
Protocol: as §1, §2

[8] = MTT cell viability assay, MRC-5; assay type: cell-based, human; conditions: human, MRC-5 lung fibroblast cells, MRC-5, 100 μM, compared to control
Protocol: as §1, §2

[9] = Caco-2 permeability assay (Transwell); assay type: in vitro ADME, human; conditions: human; Caco-2 permeability model, 1,000 μM, 240 min time point; read-out: P app, experimental
Protocol: as §3, §4, §5, §6

[10] = test system: HT29 cells; set-up: method as in Baranowska et al., 2021; conditions: concentrations up to 100 μM; ref Baranowska et al., 2021; cited from earlier work
[11] = test system: MCF-7; set-up: method as in Kocyigit et al., 2016; conditions: ref Kocyigit et al., 2016; cited from earlier work
[12] = test system: HT-29; set-up: method as in Kocyigit et al., 2016; conditions: ref Kocyigit et al., 2016; cited from earlier work
[13] = test system: PC-12; set-up: method as in Kocyigit et al., 2016; conditions: ref Kocyigit et al., 2016; cited from earlier work
[14] = test system: L-929; set-up: method as in Kocyigit et al., 2016; conditions: ref Kocyigit et al., 2016; cited from earlier work
[15] = test system: human umbilical vein endothelial cells (HUVECs); set-up: method as in earlier work; conditions: ref Çeker et al., 2019; cited from earlier work

| SMILES | changes on cell viability [3] | P app, experimental [4] [×10⁻⁶ cm/s] | percentage of the amount placed in the apical chamber found in the basolateral chamber [4] [%] | P app class, experimental [4] | percentage of DNA in tail, first quartile [5] [%] | percentage of DNA in tail, third quartile [5] [%] | percentage of DNA in tail, median [5] [%] | genotoxicity: DNA fragmentation [5] | reported P app [6] [×10⁻⁶ cm/s] | viability at 24 h, 50 µM [7] [%] | viability at 24 h, 100 µM [7] [%] | Papp A→B at 240 min, 1000 μM [9] [×10⁻⁶ cm/s] | also measured |
| --- | --- | --- | --- | --- | --- | --- | --- | --- | --- | --- | --- | --- | --- |
| O=C1C[C@@H](c2ccc(O)cc2)Oc2c1c(O)cc(O)c2S(=O)(=O)O [naringenin 8-sulphonate] | no significant changes on cell viability | 2.68 | 10.41 | → (moderate P app) | 7.25 | 66.61 | 31.18 | caused significant DNA fragmentation |  |  |  |  | cell viability ([1]; 50 μM): 92.99%; cell viability ([1]; 100 μM): 91.95%; cell viability ([2]; MRC-5, 50 μM): 94.77%; cell viability ([2]; MRC-5, 100 μM): 94.71% |
| O=c1c(O)c(-c2ccc(O)cc2O)oc2cc(O)cc(O)c12 [morin] |  |  |  |  |  |  |  |  | 0.62 |  |  |  |  |
| O=C1C[C@@H](c2ccc(OS(=O)(=O)O)cc2)Oc2cc(O)cc(O)c21 [naringenin 4’-O-sulphate] | no significant changes on cell viability | 3.45 | 12.73 | → (moderate P app) | 4.33 | 33.90 | 15.89 | did not |  | 95.4 | 89.2 | 3.45 | viability at 24 h, 100 µM [8]: 81.5% |
| O=c1c(O)c(-c2cc(O)c(O)c(O)c2)oc2cc(O)cc(O)c12 [myricetin] |  |  |  |  |  |  |  |  | 1.7 |  |  |  |  |
| O=C1C[C@@H](c2ccc(O)cc2)Oc2cc(O)cc(O)c21 [naringenin] | no significant changes on cell viability | 8.29 | 32.01 | → (moderate P app) | 14.24 | 63.36 | 33.07 | caused significant DNA fragmentation |  | 93.2 | 91.9 | 8.29 | effect on cell viability ([2]; MRC-5, 50 and 100 μM): did not elicit any significant decrease; impact on DNA integrity [10]: no impact on DNA integrity; DNA damage [11]: able to cause DNA damage; DNA damage [12]: able to cause DNA damage; DNA damage [13]: able to cause DNA damage; DNA damage [14]: able to cause DNA damage; concentration causing the best antigenotoxic effects [15]: 8 µM; concentrations causing DNA damage [15]: ≥ 50 µM |
